# Target: T1, soluble guanylate cyclase (human GUCYA3/GUCYB3) overexpressed in CHO cells (Homo sapiens, UniProt Q02108+Q02153)
# T1 construct: expressed in transfected cells
# T1 sequence (Q02108 1-690 partner): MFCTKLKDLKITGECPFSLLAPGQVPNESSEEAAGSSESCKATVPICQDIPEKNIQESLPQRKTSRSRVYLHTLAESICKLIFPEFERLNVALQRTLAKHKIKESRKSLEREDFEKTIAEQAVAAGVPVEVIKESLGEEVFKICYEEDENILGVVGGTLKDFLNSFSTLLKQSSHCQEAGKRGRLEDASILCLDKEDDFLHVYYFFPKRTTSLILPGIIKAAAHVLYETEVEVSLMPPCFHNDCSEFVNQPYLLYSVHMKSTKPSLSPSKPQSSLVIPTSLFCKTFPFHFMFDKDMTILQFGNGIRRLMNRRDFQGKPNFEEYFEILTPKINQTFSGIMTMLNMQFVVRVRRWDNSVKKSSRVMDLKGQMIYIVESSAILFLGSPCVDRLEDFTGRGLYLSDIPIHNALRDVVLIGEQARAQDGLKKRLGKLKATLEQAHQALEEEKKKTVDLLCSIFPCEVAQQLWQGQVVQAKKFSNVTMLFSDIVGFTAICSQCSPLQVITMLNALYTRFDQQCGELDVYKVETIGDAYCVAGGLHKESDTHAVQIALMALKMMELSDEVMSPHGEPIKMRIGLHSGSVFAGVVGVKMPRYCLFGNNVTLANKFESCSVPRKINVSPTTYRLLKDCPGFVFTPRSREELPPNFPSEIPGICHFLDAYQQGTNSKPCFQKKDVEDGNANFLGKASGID
# T1 sequence (Q02153 1-619): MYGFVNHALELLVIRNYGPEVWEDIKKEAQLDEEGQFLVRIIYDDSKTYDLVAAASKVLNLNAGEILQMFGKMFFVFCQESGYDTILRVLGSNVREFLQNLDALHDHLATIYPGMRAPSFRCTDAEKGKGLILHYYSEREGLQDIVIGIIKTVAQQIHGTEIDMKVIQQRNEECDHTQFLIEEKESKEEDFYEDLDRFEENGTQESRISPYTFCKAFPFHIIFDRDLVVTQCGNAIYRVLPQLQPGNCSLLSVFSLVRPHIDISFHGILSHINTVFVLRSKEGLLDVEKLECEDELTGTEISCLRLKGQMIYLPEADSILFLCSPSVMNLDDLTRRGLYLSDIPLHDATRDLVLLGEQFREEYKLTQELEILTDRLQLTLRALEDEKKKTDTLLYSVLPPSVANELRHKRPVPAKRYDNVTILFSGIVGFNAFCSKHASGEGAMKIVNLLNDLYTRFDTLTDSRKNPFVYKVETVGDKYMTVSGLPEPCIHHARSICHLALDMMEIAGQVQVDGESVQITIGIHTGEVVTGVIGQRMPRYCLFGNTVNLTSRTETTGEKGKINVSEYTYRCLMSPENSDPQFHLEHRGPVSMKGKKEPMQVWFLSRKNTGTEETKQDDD
# Assay: CHO cellular assay (cGMP production, HTRF)
# Assay type: cell-based
# Conditions: CHO K1 clone 8E10 overexpressing human sGC, Cisbio HTRF, 1 h room temperature, 1 mM IBMX, 20 uM ODQ, minimum quantification limit 0.5 nM
# Outline: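 Stable CHO K1 clone expressing human GUCYA3/GUCYB3. Compounds applied 1 h at room temperature in HBSS, 0.1% BSA, 1 mM IBMX, 20 uM ODQ, 0.5% DMSO. cGMP measured by HTRF and interpolated from a standard curve; EC50 from 4-parameter sigmoidal fit.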
row,EC50 [nM],SMILES
1,1,"Cc1cc(COc2ccc(C3CCN(C(=O)C4CC4)CC3)cc2F)c(-c2cccc(-n3ncc(C(=O)O)c3C(F)(F)F)n2)s1 [Example 6-13, 1-(6-(3-((4-(1-(Cyclopropanecarbonyl)piperidin-4-yl)-2-fluorophenoxy)methyl)-5-methylthiophen-2-yl)pyridin-2-yl)-5-(trifluoromethyl)-1H-pyrazole-4-carboxylic acid]"
2,7.5,"Cc1cc(C2CCN(C(=O)C3COC3)CC2)ccc1OCc1ccsc1-c1cccc(-n2ncc(C(=O)O)c2C(F)(F)F)n1 [Example 12-7, 1-(6-(3-((2-Methyl-4-(1-(oxetane-3-carbonyl)piperidin-4-yl)phenoxy)methyl)thiophen-2-yl)pyridin-2-yl)-5-(trifluoromethyl)-1H-pyrazole-4-carboxylic acid]"
3,≤ 0.5,"Cc1cc(COc2ccc(C3CCN(C(=O)C4CC4)CC3)cc2C)c(-c2cccc(-n3ncc(C(=O)O)c3C(F)(F)F)n2)s1 [Example 5, 1-(6-(3-((4-(1-(Cyclopropanecarbonyl)piperidin-4-yl)-2-methylphenoxy)methyl)-5-methylthiophen-2-yl)pyridin-2-yl)-5-(trifluoromethyl)-1H-pyrazole-4-carboxylic acid]"
4,2,"CCc1cc(COc2ccc(C3CCN(C(=O)C4CC4)CC3)cc2C)c(-c2cccc(-n3ncc(C(=O)O)c3C(F)(F)F)n2)s1 [Example 22-1, 1-(6-(3-((4-(1-(Cyclopropanecarbonyl)piperidin-4-yl)-2-methylphenoxy)methyl)-5-ethylthiophen-2-yl)pyridin-2-yl)-5-(trifluoromethyl)-1H-pyrazole-4-carboxylic acid]"
5,≤ 0.5,"Cc1cc(C2CCN(C(=O)C3CC3)CC2)ccc1OCc1c(C)csc1-c1cccc(-n2ncc(C(=O)O)c2C(F)(F)F)n1 [Example 4-4, 1-(6-(3-((4-(1-(Cyclopropanecarbonyl)piperidin-4-yl)-2-methylphenoxy)methyl)-4-methylthiophen-2-yl)pyridin-2-yl)-5-(trifluoromethyl)-1H-pyrazole-4-carboxylic acid]"
6,≤ 0.5,"CCc1cc(OCc2cc(C)sc2-c2cccc(-n3ncc(C(=O)O)c3C)n2)ccc1C1CCN(C(=O)C2CC2)CC1 [Example 10-4, 1-(6-(3-((4-(1-(Cyclopropanecarbonyl)piperidin-4-yl)-3-ethylphenoxy)methyl)-5-methylthiophen-2-yl)pyridin-2-yl)-5-methyl-1H-pyrazole-4-carboxylic acid]"
7,24,"CCC(=O)N1CCC(c2ccc(OCc3ccsc3-c3cccc(-n4ncc(C(=O)O)c4C(F)(F)F)n3)cc2)CC1 [Example 1, 1-(6-(3-((4-(1-Propionylpiperidin-4-yl)phenoxy)methyl)thiophen-2-yl)pyridin-2-yl)-5-(trifluoromethyl)-1H-pyrazole-4-carboxylic acid]"
8,2.8,"CCC(=O)N1CCC(c2ccc(OCc3c(C(F)(F)F)csc3-c3cccc(-n4ncc(C(=O)O)c4C(F)(F)F)n3)cc2)CC1 [Example 2-1, 1-(6-(3-((4-(1-Propionylpiperidin-4-yl)phenoxy)methyl)-4-(trifluoromethyl)thiophen-2-yl)pyridin-2-yl)-5-(trifluoromethyl)-1H-pyrazole-4-carboxylic acid]"
9,7,"Cc1cc(C2CCN(C(=O)C3CC3)CC2)ccc1OCc1c(-c2cccc(-n3ncc(C(=O)O)c3C(F)(F)F)n2)sc(C)c1C(C)C [Example 18-1, 1-(6-(3-((4-(1-(Cyclopropanecarbonyl)piperidin-4-yl)-2-methylphenoxy)methyl)-4-isopropyl-5-methylthiophen-2-yl)pyridin-2-yl)-5-(trifluoromethyl)-1H-pyrazole-4-carboxylic acid]"
10,≤ 0.5,"Cc1cc(C2CCN(C(=O)C3CC3)CC2)ccc1CCc1ccsc1-c1cccc(-n2ncc(C(=O)O)c2C(F)(F)F)n1 [Example 26, 1-(6-(3-(4-(1-(Cyclopropanecarbonyl)piperidin-4-yl)-2-methylphenethyl)thiophen-2-yl)pyridin-2-yl)-5-(trifluoromethyl)-1H-pyrazole-4-carboxylic acid]"
11,≤ 0.5,"Cc1cc(C2CCN(C(=O)C3CC3)CC2)ccc1NCc1ccsc1-c1cccc(-n2ncc(C(=O)O)c2C)n1 [Example 15, 1-(6-(3-(((4-(1-(Cyclopropanecarbonyl)piperidin-4-yl)-2-methylphenyl)amino)methyl)thiophen-2-yl)pyridin-2-yl)-5-methyl-1H-pyrazole-4-carboxylic acid]"
12,1,"Cc1cc(C2CCN(C(=O)C3CC3)CC2)ccc1NCc1c(C)csc1-c1cccc(-n2ncc(C(=O)O)c2C(F)(F)F)n1 [Example 19, 1-(6-(3-(((4-(1-(Cyclopropanecarbonyl)piperidin-4-yl)-2-methylphenyl)amino)methyl)-4-methylthiophen-2-yl)pyridin-2-yl)-5-(trifluoromethyl)-1H-pyrazole-4-carboxylic acid]"
13,1,"Cc1cc(C2CCN(C(=O)C3CC3)CC2)ccc1OCc1ccsc1-c1cccc(-n2ncc(C(=O)O)c2C(F)(F)F)c1 [Example 6-1, 1-(3-(3-((4-(1-(Cyclopropanecarbonyl)piperidin-4-yl)-2-methylphenoxy)methyl)thiophen-2-yl)phenyl)-5-(trifluoromethyl)-1H-pyrazole-4-carboxylic acid]"
14,1,"CCc1c(C)sc(-c2cccc(-n3ncc(C(=O)O)c3C(F)(F)F)n2)c1COc1ccc(C2CCN(C(=O)C3CC3)CC2)cc1C [Example 17, 1-(6-(3-((4-(1-(Cyclopropanecarbonyl)piperidin-4-yl)-2-methylphenoxy)methyl)-4-ethyl-5-methylthiophen-2-yl)pyridin-2-yl)-5-(trifluoromethyl)-1H-pyrazole-4-carboxylic acid]"
15,≤ 0.5,"Cc1cc(C2CCN(C(=O)C3CC3)CC2)ccc1OCc1cc(Cl)sc1-c1cccc(-n2ncc(C(=O)O)c2C(F)(F)F)n1 [Example 6-3, 1-(6-(5-Chloro-3-((4-(1-(cyclopropanecarbonyl)piperidin-4-yl)-2-methylphenoxy)methyl)thiophen-2-yl)pyridin-2-yl)-5-(trifluoromethyl)-1H-pyrazole-4-carboxylic acid]"
16,23,"O=C(O)c1cnn(-c2cccc(-c3sccc3COc3ccc(C4CCN(C(=O)C5CC5)CC4)cc3C(F)(F)F)n2)c1C(F)(F)F [Example 33-1, 1-(6-(3-((4-(1-(Cyclopropanecarbonyl)piperidin-4-yl)-2-(trifluoromethyl)phenoxy)methyl)thiophen-2-yl)pyridin-2-yl)-5-(trifluoromethyl)-1H-pyrazole-4-carboxylic acid]"
17,96,"Cc1cc(C2CCN(C(=O)C3CC3)CC2)ccc1OCc1cc(C(C)C)sc1-c1cccc(-n2ncc(C(=O)O)c2C(F)(F)F)n1 [Example 35-1, 1-(6-(3-((4-(1-(Cyclopropanecarbonyl)piperidin-4-yl)-2-methylphenoxy)methyl)-5-isopropylthiophen-2-yl)pyridin-2-yl)-5-(trifluoromethyl)-1H-pyrazole-4-carboxylic acid]"
18,57,"Cc1cc(C2CCN(CC(F)(F)F)CC2)ccc1OCc1c(C)csc1-c1cccc(-n2ncc(C(=O)O)c2C(F)(F)F)n1 [Example 10-9, 1-(6-(4-methyl-3-((2-methyl-4-(1-(2,2,2-trifluoroethyl)piperidin-4-yl)phenoxy)methyl)thiophen-2-yl)pyridin-2-yl)-5-(trifluoromethyl)-1H-pyrazole-4-carboxylic acid]"

row,SMILES,EC50 [nM]
1,"Cc1cc(CCc2ccc(C3CCN(C(=O)OC(C)(C)C)CC3)cc2C)c(-c2cccc(-n3ncc(C(=O)O)c3C(F)(F)F)n2)s1 [Example 46, 1-(6-(3-(4-(1-(tert-Butoxycarbonyl)piperidin-4-yl)-2-methylphenethyl)-5-methylthiophen-2-yl)pyridin-2-yl)-5-(trifluoromethyl)-1H-pyrazole-4-carboxylic acid]",3

# Source: patent publication US9765067B2, “Thiophen-2-yl-pyridin-2-yl-1H-pyrazole-4-carboxylic acid derivatives and the use thereof as soluble guanylate cyclase activators” (Novartis AG, priority 2014, dated 2017)
